Tests used:
Assay in all cases: KINOMEscan (ScanMAX) kinase profiling
Format in all cases: binding
panel of 468 kinases [1] = biological target: T1, panel of 468 kinases (Homo sapiens, UniProt P53671); conditions: LIMK2; 1 μM; read-out: % control
T1 construct: purchased KINOMEscan (ScanMAX) service

panel of 468 kinases [2] = biological target: T2, panel of 468 kinases (Homo sapiens, UniProt P29322); conditions: EPHA8; 1 μM; read-out: % control
T2 construct: purchased KINOMEscan (ScanMAX) service
T2 sequence (P29322 28-1005): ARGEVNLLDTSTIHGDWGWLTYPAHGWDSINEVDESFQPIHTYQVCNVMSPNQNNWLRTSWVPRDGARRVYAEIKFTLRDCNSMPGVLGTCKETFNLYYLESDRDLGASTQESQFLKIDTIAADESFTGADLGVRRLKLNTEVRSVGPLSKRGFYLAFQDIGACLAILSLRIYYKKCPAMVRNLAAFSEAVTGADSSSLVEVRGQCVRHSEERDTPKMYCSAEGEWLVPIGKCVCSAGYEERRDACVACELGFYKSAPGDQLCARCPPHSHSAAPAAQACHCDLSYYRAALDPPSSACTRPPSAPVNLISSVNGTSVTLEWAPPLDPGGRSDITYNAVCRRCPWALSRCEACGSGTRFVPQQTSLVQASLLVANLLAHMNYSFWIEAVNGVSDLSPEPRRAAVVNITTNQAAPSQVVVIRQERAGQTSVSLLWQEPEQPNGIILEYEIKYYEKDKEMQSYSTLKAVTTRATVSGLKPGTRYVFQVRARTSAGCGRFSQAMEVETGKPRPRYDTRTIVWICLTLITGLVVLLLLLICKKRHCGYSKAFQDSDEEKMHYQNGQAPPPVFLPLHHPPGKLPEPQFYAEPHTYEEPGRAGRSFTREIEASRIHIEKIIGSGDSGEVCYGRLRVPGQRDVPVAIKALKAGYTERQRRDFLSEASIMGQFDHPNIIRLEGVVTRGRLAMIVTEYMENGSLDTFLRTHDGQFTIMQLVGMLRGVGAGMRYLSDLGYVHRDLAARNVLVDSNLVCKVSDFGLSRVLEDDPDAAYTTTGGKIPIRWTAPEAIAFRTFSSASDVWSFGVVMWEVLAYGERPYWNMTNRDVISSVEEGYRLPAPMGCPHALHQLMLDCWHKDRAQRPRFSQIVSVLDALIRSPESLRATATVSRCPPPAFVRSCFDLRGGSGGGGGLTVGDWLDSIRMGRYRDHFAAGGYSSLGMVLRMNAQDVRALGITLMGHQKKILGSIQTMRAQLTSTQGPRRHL

panel of 468 kinases [3] = biological target: T3, panel of 468 kinases (Homo sapiens, UniProt O75914); conditions: PAK3; 1 μM; read-out: % control
T3 construct: purchased KINOMEscan (ScanMAX) service

panel of 468 kinases [4] = biological target: T4, panel of 468 kinases (Homo sapiens, UniProt P42681); conditions: TXK; 1 μM; read-out: % control
T4 construct: purchased KINOMEscan (ScanMAX) service
T4 sequence (P42681 1-527): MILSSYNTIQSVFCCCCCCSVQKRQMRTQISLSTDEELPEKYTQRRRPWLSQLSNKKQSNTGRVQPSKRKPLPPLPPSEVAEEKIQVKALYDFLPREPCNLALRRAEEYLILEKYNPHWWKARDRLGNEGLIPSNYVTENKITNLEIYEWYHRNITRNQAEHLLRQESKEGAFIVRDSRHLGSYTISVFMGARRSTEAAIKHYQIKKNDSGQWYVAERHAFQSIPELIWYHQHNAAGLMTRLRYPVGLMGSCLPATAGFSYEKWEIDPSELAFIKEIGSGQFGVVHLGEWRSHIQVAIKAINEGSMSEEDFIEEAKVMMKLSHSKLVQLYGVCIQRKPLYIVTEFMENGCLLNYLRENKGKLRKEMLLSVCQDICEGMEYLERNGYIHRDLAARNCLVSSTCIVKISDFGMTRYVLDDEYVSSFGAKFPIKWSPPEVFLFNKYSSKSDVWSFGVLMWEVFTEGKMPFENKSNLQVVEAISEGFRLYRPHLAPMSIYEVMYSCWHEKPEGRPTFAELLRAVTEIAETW

panel of 468 kinases [5] = biological target: T5, panel of 468 kinases (Homo sapiens, UniProt Q9BWU1); conditions: CDK11; 1 μM; read-out: % control
T5 construct: purchased KINOMEscan (ScanMAX) service

panel of 468 kinases [6] = biological target: T6, panel of 468 kinases (Homo sapiens, UniProt Q5S007); conditions: LRRK2; 1 μM; read-out: % control
T6 construct: purchased KINOMEscan (ScanMAX) service

panel of 468 kinases [7] = biological target: T7, panel of 468 kinases (Homo sapiens, UniProt P50750); conditions: CDK9; 1 μM; read-out: % control
T7 construct: purchased KINOMEscan (ScanMAX) service
T7 sequence (P50750 whole entry): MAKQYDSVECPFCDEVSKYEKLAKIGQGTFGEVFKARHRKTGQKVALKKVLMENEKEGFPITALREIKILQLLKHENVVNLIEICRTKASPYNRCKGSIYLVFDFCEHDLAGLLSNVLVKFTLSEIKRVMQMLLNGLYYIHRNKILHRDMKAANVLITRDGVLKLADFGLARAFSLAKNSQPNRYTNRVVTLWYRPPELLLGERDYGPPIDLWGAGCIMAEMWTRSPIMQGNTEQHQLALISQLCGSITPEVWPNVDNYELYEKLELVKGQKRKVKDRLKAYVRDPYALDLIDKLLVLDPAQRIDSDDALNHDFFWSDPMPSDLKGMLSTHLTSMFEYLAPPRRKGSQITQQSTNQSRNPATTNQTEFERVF

T6 sequence (Q5S007 whole entry): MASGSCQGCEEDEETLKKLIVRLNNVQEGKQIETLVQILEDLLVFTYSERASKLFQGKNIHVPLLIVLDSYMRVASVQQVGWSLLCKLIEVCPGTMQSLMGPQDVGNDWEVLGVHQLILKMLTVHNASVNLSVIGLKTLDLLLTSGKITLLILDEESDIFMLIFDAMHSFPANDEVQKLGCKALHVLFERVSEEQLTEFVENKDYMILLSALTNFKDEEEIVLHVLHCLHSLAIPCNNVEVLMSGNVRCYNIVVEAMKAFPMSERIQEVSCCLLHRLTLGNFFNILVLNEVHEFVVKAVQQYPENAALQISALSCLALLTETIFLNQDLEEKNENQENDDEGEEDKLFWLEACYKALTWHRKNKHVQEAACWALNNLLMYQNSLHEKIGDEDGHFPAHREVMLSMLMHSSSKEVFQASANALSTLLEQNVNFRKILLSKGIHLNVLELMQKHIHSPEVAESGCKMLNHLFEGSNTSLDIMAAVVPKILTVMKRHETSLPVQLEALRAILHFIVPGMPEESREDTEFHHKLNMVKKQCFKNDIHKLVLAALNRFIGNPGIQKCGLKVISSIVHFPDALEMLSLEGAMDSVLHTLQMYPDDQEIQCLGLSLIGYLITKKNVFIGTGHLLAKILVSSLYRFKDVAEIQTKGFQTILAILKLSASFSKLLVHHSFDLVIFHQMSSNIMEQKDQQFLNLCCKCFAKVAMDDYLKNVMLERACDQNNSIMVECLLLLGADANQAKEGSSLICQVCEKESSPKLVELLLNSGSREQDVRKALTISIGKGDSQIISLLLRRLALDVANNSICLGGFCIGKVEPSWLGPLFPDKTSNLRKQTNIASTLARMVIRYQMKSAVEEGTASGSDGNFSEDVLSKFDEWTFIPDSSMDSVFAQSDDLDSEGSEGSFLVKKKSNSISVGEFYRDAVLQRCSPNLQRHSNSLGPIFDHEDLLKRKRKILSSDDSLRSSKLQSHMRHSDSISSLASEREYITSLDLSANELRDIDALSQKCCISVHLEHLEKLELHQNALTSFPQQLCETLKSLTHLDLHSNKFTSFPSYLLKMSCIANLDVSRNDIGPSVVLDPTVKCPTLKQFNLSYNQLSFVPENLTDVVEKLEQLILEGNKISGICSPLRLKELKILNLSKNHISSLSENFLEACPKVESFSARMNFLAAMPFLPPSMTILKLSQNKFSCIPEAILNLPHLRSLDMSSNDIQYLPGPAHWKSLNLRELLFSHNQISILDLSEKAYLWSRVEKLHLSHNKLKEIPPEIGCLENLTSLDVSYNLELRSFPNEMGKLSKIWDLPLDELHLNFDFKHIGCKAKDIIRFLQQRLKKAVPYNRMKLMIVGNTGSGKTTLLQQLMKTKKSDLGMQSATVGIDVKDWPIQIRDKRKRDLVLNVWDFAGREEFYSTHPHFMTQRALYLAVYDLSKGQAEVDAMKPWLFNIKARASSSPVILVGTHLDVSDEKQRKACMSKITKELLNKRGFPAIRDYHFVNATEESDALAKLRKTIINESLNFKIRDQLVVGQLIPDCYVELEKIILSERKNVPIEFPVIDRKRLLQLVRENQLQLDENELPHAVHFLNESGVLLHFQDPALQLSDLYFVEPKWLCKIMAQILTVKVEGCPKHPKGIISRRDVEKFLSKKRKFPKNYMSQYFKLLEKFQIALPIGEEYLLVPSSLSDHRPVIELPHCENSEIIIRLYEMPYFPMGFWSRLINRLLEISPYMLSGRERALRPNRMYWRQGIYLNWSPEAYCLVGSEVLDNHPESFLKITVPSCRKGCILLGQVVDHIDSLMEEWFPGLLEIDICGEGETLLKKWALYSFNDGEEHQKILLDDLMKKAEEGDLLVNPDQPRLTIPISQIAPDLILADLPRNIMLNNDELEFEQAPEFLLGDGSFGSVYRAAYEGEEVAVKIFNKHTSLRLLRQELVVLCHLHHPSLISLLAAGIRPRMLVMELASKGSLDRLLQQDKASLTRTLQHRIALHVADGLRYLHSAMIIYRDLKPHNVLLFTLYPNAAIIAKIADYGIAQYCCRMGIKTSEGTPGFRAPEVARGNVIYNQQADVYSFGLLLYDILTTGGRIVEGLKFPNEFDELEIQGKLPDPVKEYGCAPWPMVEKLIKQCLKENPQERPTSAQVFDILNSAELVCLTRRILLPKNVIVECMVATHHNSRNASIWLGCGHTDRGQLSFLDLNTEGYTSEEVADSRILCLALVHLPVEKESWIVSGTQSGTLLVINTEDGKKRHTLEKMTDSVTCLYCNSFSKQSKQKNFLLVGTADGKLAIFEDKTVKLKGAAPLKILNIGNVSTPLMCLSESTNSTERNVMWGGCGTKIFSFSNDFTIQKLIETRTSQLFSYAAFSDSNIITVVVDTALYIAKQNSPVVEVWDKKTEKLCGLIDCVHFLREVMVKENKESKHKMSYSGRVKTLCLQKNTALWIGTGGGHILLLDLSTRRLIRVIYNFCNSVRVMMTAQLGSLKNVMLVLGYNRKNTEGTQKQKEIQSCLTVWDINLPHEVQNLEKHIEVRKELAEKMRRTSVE
T1 sequence (P53671 whole entry): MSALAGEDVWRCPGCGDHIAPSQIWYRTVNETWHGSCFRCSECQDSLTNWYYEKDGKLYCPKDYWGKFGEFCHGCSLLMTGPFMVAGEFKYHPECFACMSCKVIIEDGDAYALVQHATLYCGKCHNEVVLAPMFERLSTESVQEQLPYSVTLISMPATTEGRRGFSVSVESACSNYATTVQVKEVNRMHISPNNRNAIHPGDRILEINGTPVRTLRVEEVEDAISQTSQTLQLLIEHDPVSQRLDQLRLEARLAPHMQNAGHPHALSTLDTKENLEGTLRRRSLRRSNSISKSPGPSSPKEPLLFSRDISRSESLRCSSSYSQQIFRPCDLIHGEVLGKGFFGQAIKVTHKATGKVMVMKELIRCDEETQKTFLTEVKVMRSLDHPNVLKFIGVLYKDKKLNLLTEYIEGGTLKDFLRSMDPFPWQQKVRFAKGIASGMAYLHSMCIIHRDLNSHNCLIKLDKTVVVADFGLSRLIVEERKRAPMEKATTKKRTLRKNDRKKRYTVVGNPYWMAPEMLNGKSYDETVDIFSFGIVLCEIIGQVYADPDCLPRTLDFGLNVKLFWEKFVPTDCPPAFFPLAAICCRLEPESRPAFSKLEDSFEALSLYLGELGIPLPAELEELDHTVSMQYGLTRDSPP
T5 sequence (Q9BWU1 whole entry): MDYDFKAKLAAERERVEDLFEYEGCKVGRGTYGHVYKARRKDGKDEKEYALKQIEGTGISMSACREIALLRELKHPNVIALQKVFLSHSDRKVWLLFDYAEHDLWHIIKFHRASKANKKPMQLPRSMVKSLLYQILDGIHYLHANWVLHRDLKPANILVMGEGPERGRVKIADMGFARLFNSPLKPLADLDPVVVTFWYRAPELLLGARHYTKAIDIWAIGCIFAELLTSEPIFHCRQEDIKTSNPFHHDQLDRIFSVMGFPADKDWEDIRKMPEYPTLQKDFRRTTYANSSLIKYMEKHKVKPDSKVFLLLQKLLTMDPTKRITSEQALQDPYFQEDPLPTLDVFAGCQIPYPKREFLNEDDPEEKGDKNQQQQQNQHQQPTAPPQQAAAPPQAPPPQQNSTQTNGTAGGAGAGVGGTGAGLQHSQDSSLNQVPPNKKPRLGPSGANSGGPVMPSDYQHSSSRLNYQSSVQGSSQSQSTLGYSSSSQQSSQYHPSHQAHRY
T3 sequence (O75914 whole entry): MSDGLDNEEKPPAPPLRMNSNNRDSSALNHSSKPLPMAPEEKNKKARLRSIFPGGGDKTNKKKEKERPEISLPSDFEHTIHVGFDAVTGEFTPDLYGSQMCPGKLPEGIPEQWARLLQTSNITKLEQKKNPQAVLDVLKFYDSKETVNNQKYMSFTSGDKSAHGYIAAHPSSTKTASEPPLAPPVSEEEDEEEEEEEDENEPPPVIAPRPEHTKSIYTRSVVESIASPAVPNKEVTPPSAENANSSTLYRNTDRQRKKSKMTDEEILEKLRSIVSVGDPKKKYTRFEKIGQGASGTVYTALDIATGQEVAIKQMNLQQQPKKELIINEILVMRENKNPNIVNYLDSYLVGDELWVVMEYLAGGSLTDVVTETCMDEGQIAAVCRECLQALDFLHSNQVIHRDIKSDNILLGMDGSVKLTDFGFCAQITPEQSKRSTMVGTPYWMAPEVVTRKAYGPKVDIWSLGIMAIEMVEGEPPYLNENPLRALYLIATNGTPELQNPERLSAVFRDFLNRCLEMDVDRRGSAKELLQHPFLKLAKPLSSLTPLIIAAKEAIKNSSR

| Structure (SMILES) | remaining binding at 1 µM (panel of 468 kinases [1]) [%] | remaining binding at 1 µM (panel of 468 kinases [2]) [%] | remaining binding at 1 µM (panel of 468 kinases [3]) [%] | remaining binding at 1 µM (panel of 468 kinases [4]) [%] | remaining binding at 1 µM (panel of 468 kinases [5]) [%] | remaining binding at 1 µM (panel of 468 kinases [6]) [%] | remaining binding at 1 µM (panel of 468 kinases [7]) [%] |
| --- | --- | --- | --- | --- | --- | --- | --- |
| CNc1nc(Nc2ccc(S(=O)(=O)N3CCC(N4CCOCC4)CC3)cc2OC)nc2[nH]cc(Cl)c12 [Compound 12, 5-chloro-N2-(2-methoxy-4-((4-morpholinopiperidin-1-yl)sulfonyl)phenyl)-N4-methyl-7H-pyrrolo[2,3-d]pyrimidine-2,4-diamine] | 100 | 100 | 100 | 100 | 100 | 0.8 | 100 |
| CNc1nc(Nc2ccc(C(=O)N3CCC(N4CCOCC4)CC3)c3c2OCO3)nc2[nH]cc(Cl)c12 [Compound 75, (7-((5-chloro-4-(methylamino)-7H-pyrrolo[2,3-d]pyrimidin-2-yl)amino)benzo[d][1,3]dioxol-4-yl)(4-morpholinopiperidin-1-yl)methanone] | 99 | 100 | 97 | 87 | 98 | 1.4 | 100 |
| CNc1nc(Nc2ccc(P3(=O)CCN(C4CCOCC4)CC3)cc2OC)nc2[nH]cc(Cl)c12 [Compound 77, 4-(4-((5-chloro-4-(methylamino)-7H-pyrrolo[2,3-d]pyrimidin-2-yl)amino)-3-methoxyphenyl)-1-(tetrahydro-2H-pyran-4-yl)-1,4-azaphosphinane 4-oxide] | 84 | 100 | 91 | 98 | 100 | 0.4 | 100 |

— patent US12479847B2 (DANA-FARBER CANCER INSTITUTE, INC., priority 2019, dated 2025)
